# Results: patent publication EP2518500A1, “In vitro method for determining developmental toxicity of a compound” (priority 2011, dated 2012)
# Read-outs that look alike come from different tables or passages of the source.
# Legend:
# [1] = tested on: si:rp71-39b20.7; test: Microarray gene expression in zebrafish embryos exposed to compound, si:rp71-39b20.7; settings: 24 hpf; embryos exposed at BMCGMS20 (PAA equimolar to MAA and EAA); relative to DMSO-exposed control; negative = downregulation, positive = upregulation
# [2] = tested on: hspb12; test: Microarray gene expression in zebrafish embryos exposed to compound, hspb12; settings: 24 hpf; embryos exposed at BMCGMS20 (PAA equimolar to MAA and EAA); relative to DMSO-exposed control; negative = downregulation, positive = upregulation
# [3] = tested on: vmhc; test: Microarray gene expression in zebrafish embryos exposed to compound, vmhc; settings: 24 hpf; embryos exposed at BMCGMS20 (PAA equimolar to MAA and EAA); relative to DMSO-exposed control; negative = downregulation, positive = upregulation
# [4] = tested on: zebrafish embryos; test: Method of the invention: developmental toxicity from expression of the 4 genes in exposed zebrafish embryos; settings: for fold ratio (FR) (either up- or downregulated): all 4 genes (cyp26a1, si:rp71-39b20.7, vmhc, hspb12), 24 hpf microarray, compound versus DMSO control
# [5] = tested on: cyp26a1; test: Microarray gene expression in zebrafish embryos exposed to compound, cyp26a1; settings: 24 hpf; embryos exposed at BMCGMS20 (PAA equimolar to MAA and EAA); relative to DMSO-exposed control; negative = downregulation, positive = upregulation
# [6] = tested on: zebrafish embryos; settings: zebrafish (Danio rerio), in vivo, 24 hpf
# [7] = tested on: vmhc; settings: zebrafish (Danio rerio), in vivo, 24 hpf
# [8] = tested on: si:rp71-39b20.7; settings: zebrafish (Danio rerio), in vivo, 24 hpf
# [9] = tested on: hspb12; settings: zebrafish (Danio rerio), in vivo, 24 hpf
# [10] = tested on: cyp26a1; settings: zebrafish (Danio rerio), in vivo, 24 hpf
# [11] = tested on: zebrafish embryos; settings: concentration range, three independent runs, evaluated at 72 hpf; previous study [11]; cited from earlier work
Structure (SMILES),Fold ratio (FR) si:rp71-39b20.7 [1],Fold ratio (FR) hspb12 [2],Fold ratio (FR) vmhc [3],fold ratio (FR) (either up- or downregulated) [4],Fold ratio (FR) cyp26a1 [5],fold ratio (FR) (either up- or downregulated) [6],Fold ratio (FR) vmhc [7],Fold ratio (FR) si:rp71-39b20.7 [8],Fold ratio (FR) hspb12 [9],Fold ratio (FR) cyp26a1 [10],effects in the ZET (GMS) [11],"developmental toxicity classification in the method according to the invention ([4]; gene expression in zebrafish embryos, 24 hours after fertilization)"
"CC(C1CC1)C(O)(Cn1cncn1)c1ccc(Cl)cc1 (stereo not drawn) [CYP, cyproconazole]",-1.544,-1.531,-1.759,> 1.5,3.745,–,–,–,–,–,–,–
"CCOCC(=O)O [EAA, ethoxyacetic acid]",-2.183,-16.913,-4.629,> 1.5,2.648,–,–,–,–,–,–,–
"C[Si](Cn1cncn1)(c1ccc(F)cc1)c1ccc(F)cc1 [FLU, flusilazole]",-1.514,-2.182,-1.784,> 1.5,3.452,–,–,–,–,–,–,–
"COCC(=O)O [MAA, methoxyacetic acid]",–,–,–,–,–,> 1.5,-2.946,-1.996,-3.449,1.722,–,–
"O=C(O)COc1ccccc1 [PAA, phenoxyacetic acid]",-1.098,-1.135,-1.102,< 1.2,-1.009,–,–,–,–,–,no effects,non-developmentally toxic
